How the values were obtained:
[1] = target: T1, Langerin extracellular domain (ECD) (Homo sapiens, UniProt Q9UJ71); assay: 19F R2-filtered NMR reporter displacement assay with Langerin; type: binding; conditions: for Ki: 19F R2-filtered NMR, 0.1 mM reporter ligand 24, pH 7.8, 25 °C; for Relative potency, Langerin: calculated utilizing the KI value determined for GlcNAc
T1 construct: the trimeric Langerin extracellular domain (ECD) was expressed insolubly in E; made in house
Experimental: Receptor Expression and Purification
General remarks. Codon-optimized genes for the expression of Langerin and DC-SIGN in E. coli were purchased from GenScript and Life Technologies, respectively. All growth media or chemicals used for receptor expression and purification were purchased from Carl Roth if not stated otherwise.
Langerin extracellular domain. Expression and purification were conducted as previously published14. Briefly, the trimeric Langerin extracellular domain (ECD) was expressed insolubly in E. coli BL21* (DE3) (Invitrogen). Following enzymatic cell lysis, inclusion bodies were harvested and subsequently solubilized. The sample was centrifuged and the Langerin ECD was refolded overnight via rapid dilution. Next, the sample was dialyzed overnight, centrifuged and purified via mannan-agarose affinity chromatography (Sigma Aldrich). For 19F R2-filtered NMR and lipid-enzyme-linked lectin assay (Lipid-ELLA) experiments, the buffer was exchanged to 25 mM Tris with 150 mM NaCl and 5 mM CaCl2 at pH 7.8 using 7 kDa size-exclusion desalting columns (Thermo Scientific). For […]
D2O, 150 mM NaCl and 5 mM CaCl2 at pH 7. The concentration of Langerin ECD was determined via UV spectroscopy (A280, 0.1% = 2.45). Purity and monodispersity of Langerin ECD samples were analyzed via SDS PAGE and DLS. […]
General remarks. 19F R2-filtered NMR experiments were conducted on a PremiumCompact 600 MHz spectrometer (Agilent). Spectra were processed in MestReNova and data analysis was performed with OriginPro 13, 15. Experiments with the Langerin ECD were performed at a receptor concentration of 50 μM in 25 mM Tris with 10% D2O, 150 mM NaCl and 5 mM CaCl2 at pH 7.8 and 25° C. […]
10% D2O, 150 mM NaCl and 5 mM CaCl2 at pH 7.0 and 25°C. TFA served as an internal reference at a concentration of 50 μM. Apparent relaxation rates R2,obs for the reporter ligand were determined using the CPMG pulse sequence as previously published3-5. […]
KI determination. KI values were determined as previously published for Langerin3. Briefly, titration experiments were conducted at a concentration of 0.1 mM of reporter ligand 24 at five competitor concentrations [I]T. Samples were prepared via serial dilution. For the acids GlcNS, GlcNAc-6-OS and GlcNS-6-OS the pH values were monitored and adjusted to 7.8 if necessary.
General remarks. 15N HSQC NMR experiments were conducted on an Ascend 700 MHz spectrometer (Bruker)16. Spectra were processed in NMRPipe17. Data analysis was performed using CCPN Analysis, MatLab and OriginPro15, 18-19. Experiments with the Langerin CRD were performed at a receptor concentration of 100 μM in 25 mM HEPES with 10% D 2O, 150 mM NaCl and 5 mM CaCl2 at pH 7.8 and 25° C. DSS-d6 served as an internal reference at a concentration of 100 μM. Spectra were referenced via the internal spectrometer reference. Spectra were acquired with 128 increments and 32 scans per increments for 150 μl samples in 3 mm sample tubes. The relaxation delay d1 was set to 1.4 s and the acquisition time tacq was set to 100 ms. The W5 Watergate pulse sequence was used for solvent suppression20. The used resonance assignment for the Langerin CRD has been published […]
KD determination. KD values were determined in titration experiments at six ligand concentrations [L]T. Samples were prepared via serial dilution. Chemical shift perturbations CSPs for Langerin CRD resonances in the fast or fast-to-intermediate exchange regime observed upon titration with ligand were calculated via Equation 121.

[2] = system: Langerin^– THP-1 cells; assay: Colorimetric cytotoxicity assay, Langerin- THP-1 cells; type: cell-based, human; conditions: doxorubicin encapsulated in liposomes or free, 48 h
Experimental: (§1) the PEG-DSPE was substituted with glycolipids 22 or 23 at varying ratios. PEG-DSPE (3.0 kDa, NOF Europe), 22 or 23 were dissolved in DMSO, added to a round bottom flask and lyophilized. Next, DSPC (NOF Europe) and cholesterol (Sigma Aldrich) were dissolved in chloroform, added to the test tube and the solvent was removed in vacuo. The residue was dissolved in PBS and the mixture was vortexed and sonicated repeatedly until a homogeneous suspension was obtained. Unilamellar liposomes were prepared using a pore extruder (Avanti Polar Lipids) with polycarbonate membranes of 800, 400, 200 and finally 100 nm pore size (Avanti Polar Lipids). […]
(§2) The Lipid-ELLA was conducted as previously published35. […] Binding of the Langerin ECD was detected via absorbance A450 measurements at 450 nm using a SpectraMax spectrometer (Molecular Devices) in three independent titrations.
(§3) CO2. […] After centrifugation at 400 g for 5 min the supernatant was analyzed in the TNF-α ELISA. […]
(§4) To assess the cytotoxicity of doxorubicin-containing liposomes with THP-1 cells, 50,000 cells per well were added to 96 well microtiter plates (Corning) and incubated in presence of liposomes at a given total lipid concentration [Lipid]T in a final volume of 100 μl for 48 h at 37°C and 5% CO2. Cell viability was analyzed using CellTiter 96 (Promega) by measuring formazan absorbance at 490 nm. […]

[3] = system: Langerin^+ THP-1 cells; assay: Colorimetric cytotoxicity assay, Langerin+ THP-1 cells; type: cell-based, human; conditions: doxorubicin encapsulated in liposomes or free, 48 h
Experimental: as §1, §2, §3, §4

T1 sequence (Q9UJ71 65-328 limits assumed): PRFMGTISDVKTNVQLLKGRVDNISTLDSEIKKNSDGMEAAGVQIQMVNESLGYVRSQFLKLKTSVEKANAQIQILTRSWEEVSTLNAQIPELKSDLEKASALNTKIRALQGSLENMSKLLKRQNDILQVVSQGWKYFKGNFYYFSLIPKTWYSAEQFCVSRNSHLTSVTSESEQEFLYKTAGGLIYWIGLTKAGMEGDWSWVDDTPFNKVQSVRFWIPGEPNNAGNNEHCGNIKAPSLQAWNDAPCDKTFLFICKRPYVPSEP

SMILES: CC(=O)N[C@@H]1[C@@H](O)[C@H](O)[C@@H](CO)O[C@H]1O [GlcNAc, N-acetyl glucosamine]
- Ki [1]: 4100 ± 700 µM
- Relative potency, Langerin [1]: 1.0

SMILES: CC(=O)N[C@H]1C(O)O[C@H](COS(=O)(=O)O)[C@@H](O)[C@@H]1O (stereo partly shown) [GlcNAc-6-OS, N-acetyl glucosamine-6-sulfate]
- Ki [1]: 600 ± 100 µM
- Relative potency, Langerin [1]: 6.8

SMILES: O=S(=O)(O)N[C@H]1C(O)O[C@H](CO)[C@@H](O)[C@@H]1O (stereo partly shown) [GlcNS, glucosamine-2-sulfate]
- Ki [1]: 1400 ± 200 µM
- Relative potency, Langerin [1]: 2.9

SMILES: O=S(=O)(O)N[C@H]1C(O)O[C@H](COS(=O)(=O)O)[C@@H](O)[C@@H]1O (stereo partly shown) [GlcNS-6-OS, glucosamine-2-sulfate-6-sulfate]
- Ki [1]: 280 ± 60 µM
- Relative potency, Langerin [1]: 14

SMILES: OC[C@H]1OC(O)[C@H](O)[C@@H](O)[C@@H]1O (stereo partly shown) [Glc]
- Ki [1]: 21000 ± 4000 µM
- Relative potency, Langerin [1]: 0.20

SMILES: Cc1ccc(S(=O)(=O)N[C@H]2[C@H](OCCN)O[C@H](CO)[C@@H](O)[C@@H]2O)cc1 [compound 15]
- affinity increase over Man-based reference molecule 21 ([1]; from KI values, Langerin, b47 words it as over natural glycans): 42 fold

SMILES: COc1cccc2c1C(=O)c1c(O)c3c(c(O)c1C2=O)C[C@@](O)(C(=O)CO)C[C@@H]3O[C@H]1C[C@H](N)[C@H](O)[C@H](C)O1 [free doxorubicin, doxorubicin]
- killing of Langerin^– THP-1 cells [2]: killed both Langerin^+ and Langerin^– cells
- killing of Langerin^+ THP-1 cells [3]: killed both Langerin^+ and Langerin^– cells

Source: paper PMC6535779, “A Specific, Glycomimetic Langerin Ligand for Human Langerhans Cell Targeting” (ACS Central Science, 2019)
